Data as given in PubChem BioAssay (NCI).
Where “and” joins values, the source holds several entries; their conditions need not be identical. Equal entries are not always repeated.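 A five-concentration, 48-hour dose response in 96-well plates underlies each endpoint, interpolated linearly between surrounding concentrations. GI50 = concentration required for 50% inhibition of growth. TGI denotes the concentration required for complete inhibition of growth.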

Columns and labels:
Experiment in all cases: NCI-60 cell line screen, 48 h
CCRF-CEM leukemia = system: CCRF-CEM leukemia
EKVX NSCLC = system: EKVX NSCLC
HCT-15 colon = system: HCT-15 colon
HOP-62 NSCLC = system: HOP-62 NSCLC
HOP-92 NSCLC = system: HOP-92 NSCLC
MOLT-4 leukemia = system: MOLT-4 leukemia
SK-MEL-28 melanoma = system: SK-MEL-28 melanoma
SF-268 CNS = system: SF-268 CNS
SN12C renal = system: SN12C renal
SNB-19 CNS = system: SNB-19 CNS

Row | SMILES | TGI (CCRF-CEM leukemia) [µM] | TGI (EKVX NSCLC) [µM] | TGI (HCT-15 colon) [µM] | TGI (HOP-62 NSCLC) | TGI (HOP-92 NSCLC) [µM] | TGI (MOLT-4 leukemia) [µM] | TGI (SK-MEL-28 melanoma) [µM] | TGI (SF-268 CNS) [µM] | TGI (SN12C renal) | TGI (SNB-19 CNS) [µM] | GI50 (CCRF-CEM leukemia) | GI50 (EKVX NSCLC) | GI50 (HCT-15 colon) [µM] | GI50 (HOP-62 NSCLC) | GI50 (MOLT-4 leukemia) | GI50 (SF-268 CNS) [µM] | GI50 (SK-MEL-28 melanoma) [µM] | GI50 (SN12C renal) | GI50 (SNB-19 CNS) | GI50 (HOP-92 NSCLC) [µM]
1 | O=c1c(-c2ccccc2)c(SCCN2CCOCC2)n(-c2ccccc2)c(=S)n1-c1ccccc1 | > 100 | > 100 | > 100 | > 100 µM | > 100 | > 100 | > 100 | – | – | – | – | – | – | – | – | – | – | – | – | –
2 | O=C(CSSCC(=O)OCCS(=O)(=O)Nc1ccc(Br)cc1)OCCS(=O)(=O)Nc1ccc(Br)cc1 | > 100 | > 100 | 48.5 | – | 51.5 | 15.4 | 96.4 | 63.2 | 59.8 µM | > 100 | – | – | – | – | – | – | – | – | – | –
3 | CCCC[C@H]1C(=O)O[C@H](C)[C@H](NC(=O)c2cccc(NC=O)c2OC)C(=O)O[C@@H](C)[C@@H]1OC(=O)CC(C)C (tested in a mixture with another compound) | 24.4 | 31.3 | 51.2 | 44.5 µM | 27.2 | 51.4 | 52.8 | 38.5 | 44.2 µM | 22.3 | – | – | – | – | – | – | – | – | – | –
4 | O=S(=O)(O)c1ccc2c(N=Nc3ccccc3)c(O)ccc2c1 | > 100 | > 100 | > 100 | > 100 µM | > 100 | > 100 | > 100 | > 100 | > 100 µM | > 100 | – | – | – | – | – | – | – | – | – | –
5 | Cc1ccc2c3c1[C@@H]1O[C@@H]1c1cccc(c1-3)[C@@H]1O[C@H]21 | – | 32.3 | 36.7 | 32 µM | 36.8 | 12.8 | 23.5 | 34.1 | 25.5 µM | 49.9 | – | – | – | – | – | – | – | – | – | –
6 | Cc1cc2c(cc1Cl)SC(c1ccccc1O)NS2(=O)=O (stereo not given) | 26.3 | > 100 | > 100 | > 100 µM | > 100 | > 100 | > 100 | > 100 | > 100 µM | > 100 | – | – | – | – | – | – | – | – | – | –
7 | CCOC(=O)/C(=C\NC(C)(C)CO)c1nc2ccccc2[nH]1 | > 100 | > 100 | > 100 | > 100 µM | > 100 | > 100 | > 100 | > 100 | > 100 µM | > 100 | – | – | – | – | – | – | – | – | – | –
8 | COc1ccc(N=Nc2c(N)nn(C)c2N)cc1 | > 100 | > 100 | > 100 | > 100 µM | > 100 | > 100 | > 100 | > 100 | > 100 µM | > 100 | – | – | – | – | – | – | – | – | – | –
9 | CCOC(=O)C12CC(C)=C(C)CC1CCCc1ccccc12 (stereo not given) | 41.6 | 49.5 | 59.8 | > 100 µM | 38.8 | 52.3 | 92.7 | > 100 | 58.3 µM | 83 | – | – | – | – | – | – | – | – | – | –
10 | COc1ccc(N=Cc2ccc(N(CCC#N)S(=O)(=O)c3ccccc3)cc2C)cc1 | > 100 | > 100 | > 100 | > 100 µM | > 100 | > 100 | > 100 | > 100 | > 100 µM | > 100 | – | – | – | – | – | – | – | – | – | –
11 | COc1ccc2c(c1)CCCc1c-2nc2ccccc2c1N | 32 | 22.2 | 26.5 | 12.9 µM | 18.9 | 66.5 | 25.5 | 29.2 | 17.9 µM | 31.8 | – | – | – | – | – | – | – | – | – | –
12 | N#Cc1c(-c2ccc(Cl)cc2)c2c([nH]c1=O)-c1cc([N+](=O)[O-])ccc1CCC2 | > 100 | 51.2 | 47.6 | 45.9 µM | 38.5 | > 100 | 63.6 | 44.2 | 34.7 µM | 56.8 | – | – | – | – | – | – | – | – | – | –
13 | COC(=O)c1ccc2c(c1)sc1nc(-c3ccc(OC)cc3)cn12 | > 100 | > 100 | > 100 | > 100 µM | > 100 | > 100 | > 100 | > 100 | > 100 µM | > 100 | – | – | – | – | – | – | – | – | – | –
14 | COc1cc(C2C(=O)C(Cl)N2Nc2nc(C)cc(=O)[nH]2)cc(OC)c1OC (stereo not given) | – | > 100 | 31.9 | > 100 µM | 37.3 | 39.9 | 49.6 | > 100 | 53.1 µM | > 100 | – | – | – | – | – | – | – | – | – | –
15 | C[C@H]1CCC/C=C/[C@@H]2C[C@H](O)C[C@H]2[C@H](O)/C=C/C(=O)O1 | 5.53 | – | – | 9.24 µM and 4.21 µM | – | – | – | > 63.3 | 3.95 µM and 0.491 µM | > 100 | < 0.0183 µM and 0.0501 µM and 0.0981 µM | < 0.0164 µM and 0.0544 µM and 0.0447 µM | 0.104 | 0.0216 µM and 0.0722 µM and 0.0915 µM | < 0.0165 µM and 0.0481 µM and 0.0564 µM | < 0.0103 | 0.0292 | 0.0294 µM and 0.0846 µM and 0.0485 µM | 0.0308 µM and 0.134 µM and 0.215 µM | –
16 | CCCCCCCCCCCCSC(=S)c1c(C)[nH]n(CCCCCCCCCCCC)c1=O | > 100 | 81.1 | > 100 | > 100 µM | – | > 100 | > 100 | > 100 | > 100 µM | > 100 | – | – | – | – | – | – | – | – | – | –
17 | O=C1CS(=O)(=O)C(c2cccc(Oc3ccccc3)c2)N1C1CC1 (stereo not given) | > 100 | > 100 | > 100 | – | > 100 | > 100 | > 100 | > 100 | > 100 µM | > 100 | – | – | – | – | – | – | – | – | – | –
18 | Cc1cn(Cc2cn(CC3OC(n4cc(C)c(=O)[nH]c4=O)CC3O)nn2)c(=O)[nH]c1=O (stereo not given) | > 100 | > 100 | > 100 | > 100 µM | – | > 100 | > 100 | > 100 | > 100 µM | > 100 | – | – | – | – | – | – | – | – | – | –
19 | CCN(CCO)CCNc1ccc(C)c2sc3ccccc3c(=O)c12 | 27.6 | 26.8 | 10.8 | 11 µM | 14.1 | 18.8 | 3.77 | 20.9 | 23.9 µM | 24.7 | – | – | – | – | – | – | – | – | – | –
20 | O=C([CH-]C(=O)c1ccccc1)c1ccccc1.O=C([CH-]C(=O)c1ccccc1)c1ccccc1.O=C([CH-]C(=O)c1ccccc1)c1ccccc1.[Cl-].[Hf+4] | – | 77.2 | > 100 | – | 36.1 | > 100 | 82.5 | > 100 | > 100 µM | > 100 | – | 24.8 µM | 12.5 | – | 11.1 µM | 26.4 | 20.3 | 41.3 µM | 14.1 µM | 10.9
21 | Cn1c2cn[nH]c(=O)c2c2ccc3ccccc3c21 | > 100 | 75.3 | > 100 | 31.8 µM | 60.8 | > 100 | – | 97.2 | > 100 µM | > 100 | – | – | – | – | – | – | – | – | – | –
22 | O=C(O)CCCN=C(C1=C(O)C(=O)N(c2ccccc2)C1=O)c1ccccc1 | > 100 | > 100 | > 100 | > 100 µM | > 100 | > 100 | > 100 | > 100 | > 100 µM | > 100 | – | – | – | – | – | – | – | – | – | –
23 | O=c1[nH]c(=O)n(CCOCP(=O)(O)O)nc1Br | > 100 | > 100 | > 100 | > 100 µM | > 100 | > 100 | > 100 | > 100 | > 100 µM | > 100 | – | – | – | – | – | – | – | – | – | –
24 | Cc1cc(=O)n2c3c(c4c(cc13)c(CN(C)C)cc(=O)n4C)OC2 | > 100 | > 58.2 | > 56.7 | > 100 µM | 97.6 | > 100 | > 85.8 | 55.7 | > 100 µM | > 74.6 | – | – | – | – | – | – | – | – | – | –
25 | CCCCCCCCCCCCCCCCCC(=O)OCC1OC(OC)C(NC(=O)N(CCCl)N=O)C(O)C1O (stereo not given) | – | – | > 100 | > 100 µM | – | 57.3 | 53.1 | 26.7 | 30.3 µM | > 100 | – | – | – | – | – | – | – | – | – | –
26 | O=c1[nH]c2cc([N+](=O)[O-])c(N/N=C/c3ccc(Cl)cc3Cl)c([N+](=O)[O-])c2[nH]1 | > 100 | > 100 | > 100 | > 100 µM | > 100 | > 100 | > 100 | > 100 | > 100 µM | > 100 | – | – | – | – | – | – | – | – | – | –
27 | CC(C)(C)c1cc(-c2nc3ccc(N4CCN(CCO)CC4)cc3[nH]2)cc(C(C)(C)C)c1O | – | – | 3.05 | – | 4.44 | – | 3.1 | – | > 100 µM | > 100 | – | – | 1.55 | – | – | – | 1.68 | 3.77 µM | 3.48 µM | 1.41
28 | N=C(N)c1ccc(N=Nc2c(O)ccc3cc4c(N=Nc5ccc(C(=N)N)cc5)c(O)ccc4cc23)cc1 | > 100 | > 100 | > 100 | > 100 µM | > 100 | > 100 | > 100 | > 100 | > 100 µM | > 100 | – | – | – | – | – | – | – | – | – | –
29 | C/C(=C\C(=N\NC(=N)N)c1ccccc1)c1ccccc1 | 1.8 | – | 14.7 | 0.7 µM | 3.22 | 2.04 | 8.86 | 2.3 | 3.09 µM | 3.49 | – | – | – | – | – | – | – | – | – | –
30 | O=C(NC(Cc1ccc(Cl)cc1)C(=O)O)c1ccc(I)cc1 (stereo not given) | > 100 | – | > 100 | > 100 µM | > 100 | > 100 | > 100 | > 100 | > 100 µM | > 100 | – | – | – | – | – | – | – | – | – | –
